6 compounds from US4753938A, “Condensed as-triazine derivatives” (Richter Gedeon Vegyeszeti Gyar Rt., priority 1983, dated 1988) can be followed below.

Broadly, the ED50 is the dose at which the effect has come halfway, by size or by number of responders. What is called LD50 is the dose expected to kill half of the subjects tested. Read a high LD50 as a less toxic substance.

Series [1] relates to tetrabenazine ptosis on mice. Briefly: Antagonism of tetrabenazine ptosis on mice, p.o. The format is in vivo. The conditions noted are these: for ED50: Mus musculus, po, 0.5 h, 50 mg./kg. tetrabenazine i.p. 30 minutes later. The procedure:
(§1) (2) Antagonism of Tetrabenazine ptosis on mice and rats, p.o. […] The results are evaluated as follows: on the basis of all the measured data an average ptosis is calculated for each group and the deviation from the average of the control group is expressed in percents (inhibition). The ED50 values are calculated from the data thus obtained.

For the next series, the system named is reserpine ptosis on mice. As to the kind of experiment: Antagonism of reserpine ptosis on mice, p.o. The format is in vivo. The conditions noted are these: for ED50: Mus musculus, po, 1 h, 60 minutes after 6 mg./kg. reserpine s.c. The procedure:
(3) Antagonism of reserpine ptosis on mice, p.o. Animal groups consisting of 10 mice each are treated subcutaneously with 6 mg./kg. of reserpine. The test compound is administered orally after 60 minutes. The animals showing a ptosis are counted after 60 and 120 minutes. The evaluation is carried out as described in connection with the previous ptosis test No. 2.

Series [2] has as its system yohimbine toxicity on mice. Briefly: Potentiation of yohimbine toxicity on mice (method of Quinton). To be noted: for ED50: Mus musculus, ip, read-out: ED50, potentiation of yohimbine toxicity; for Ther. index, potentiation of yohimbine toxicity: mice. The series is classed as in vivo. As for the experimental part:
(5) Potentiation of yohimbine toxicity on mice
The tests are carried out according to the method of Quinton. Animal groups consisting of 10 mice each are treated with the test compound. After an hour a sublethal dose of yohimbine is administered intraperitoneally at a rate of 20 ml./kg. The killed animals are counted after 1 and 24 hours, respectively.

Series [3] can be described thus: Acute toxicity on mice, oral (LD50, Litchfield-Wilcoxon, 7 days observation). To be noted: mouse, in vivo. The procedure: (1) Acute toxicity on mice
The test is carried out on male and female white mice belonging to the CFLP strain and weighing 18-22 g. The test compound is administered orally and the animals are observed for a period of 7 days. In the groups for each dose half of the animals are male and the other half are female. The animals are kept in a plastic box (39×12×12 cm) on scrapings litter at room temperature. The mice receive standard fodder and tap water ad libitum. The toxicity data are determined by the method of Litchfield-Wilcoxon.
The test compounds are used in a suspension formed with 0.5% carboxymethyl cellulose.

Series [4] deals with tetrabenazine ptosis on rats. Briefly: Antagonism of tetrabenazine ptosis on rats, p.o. The format is in vivo. The conditions noted are these: Rattus norvegicus, po. As for the experimental part:
as §1

The test system of the next series is reserpine ptosis on rats. As to the kind of experiment: Antagonism of reserpine ptosis on rats, p.o. The series is classed as in vivo. To be noted: Rattus norvegicus, po, 1 h, 60 minutes after 2.5 mg./kg. reserpine s.c. As for the experimental part: (4) Antagonism of reserpine ptosis on rats, p.o. […] The animals showing ptosis are counted until the effect decreases. The evaluation is carried out as described in connection with the previous ptosis test (test 2).

Series [5] concerns aconitine-induced ECG changes in rats. Briefly: Antiarrhythmial effect on rats (aconitine, modified method of Marmo et al.). To be noted: aconitine 75 μg./kg. i.v. The format is in vivo. As for the experimental part: (6) Antiarrhythmial effect on rats
The test is carried out according to the modified method of Marmo et al. The test animals are narcotized with ethyl urethane (1.2 g./kg. i.p.). Aconitine is administered intravenously in the form of a bolus injection in a dose of 75 μg./kg. The changes of ECG are followed in standard II outlet 5 minutes after the administration of aconitine. The changes observed are evaluated with the aid of a scale from 0 to 5 points. The test compound is administered either intravenously 2 minutes before the addition of aconitine, or orally 1 hour before the aconitine administration.

In series [6] the test system is tremorine-induced tremor in mice. As to the kind of experiment: Antitremorine effect on mice. The format is in vivo. The procedure: (7) Antitremorine effect on mice 20 mg./kg. of tremorine are administered i.p. to mice whereupon after 45 minutes the induced characteristic tremor is registered. The test compounds are administered orally 1 hour before the addition of tremorine.

The structures appear in SMILES notation. Bounds are passed on as bounds.

For `CN(C)CCC=C1c2ccccc2CCc2ccccc21` [Amitriptyline, N,N-dimethyl-3-[dibenzo[a,d]-cycloheptadiene-5-ylidene]propylamine, reference compound], the “Ther. index, tetrabenazine ptosis” value in series [1] was found to be 19. Moreover, in the series on reserpine ptosis on mice, the “Ther. index, reserpine ptosis” value came out at 3.45 and the 50% effect level (ED50) was put at a dose of 65 mg/kg. In series [2], the ED50 came to 12.5 mg/kg and the “Ther. index, potentiation of yohimbine toxicity” value (shortened to “Ther. index, potentiation”) is 18.
Take `OC1(c2ccc(Cl)cc2)[N-]C=N[n+]2ccc3ccccc3c21` (stereo not drawn) [Compound A, 1-(4-chloro-phenyl)-1-hydroxy-as-triazino[6,1-a]isoquinoline-5-ium-2-(1H)-ide]: the LD50 at 168 h in series [3] was 550 mg/kg. The “Ther. index, tetrabenazine ptosis” value in series [1] is listed as 3667. Also, the ED50 was determined as 0.15 mg/kg in series [1]; 7 mg/kg in series [4]; 28 mg/kg in the series on reserpine ptosis on mice; 28 mg/kg in the series on reserpine ptosis on rats; 5 mg/kg in series [2]. Besides, the “Ther. index, reserpine ptosis” value with reserpine ptosis on mice amounted to 19.6. The “Ther. index, potentiation” value in series [2] was determined as 110. The “Inhibition, antiarrhythmial effect” value in series [5] (dose 1 mg./kg.) worked out at 39.6%.
With `COC1(c2ccc(Cl)cc2)[N-]C=N[n+]2ccc3ccccc3c21` (stereo not drawn) [Compound B, 1-(4-chloro-phenyl)-1-methoxy-as-triazino[6,1-a]isoquinoline-5-ium-2-(1H)-ide], in series [3], the LD50 at 168 h turned out to be 420 mg/kg. Moreover, the “Ther. index, tetrabenazine ptosis” value in series [1] is given as 1680. Further, the ED50 in series [1] was found to be 0.25 mg/kg; in series [4] it was 0.6 mg/kg; in the series on reserpine ptosis on mice, 1.5 mg/kg; with reserpine ptosis on rats, 34 mg/kg; in series [2], 1.2 mg/kg; in series [6] (Mus musculus, po, p.o. 1 hour before tremorine 20 mg./kg. i.p.), 40 mg/kg. The “Ther. index, reserpine ptosis” value in the series on reserpine ptosis on mice worked out at 280.0. The “Ther. index, potentiation” value in series [2] is recorded as 350. Also, the “Inhibition, antiarrhythmial effect” value in series [5] (dose 1 mg./kg.) was 44.3%. Besides, the “Ther. index, antitremorine effect” value in series [6] (p.o.) is recorded as 10.5.
`O=c1nc(-c2ccc(Cl)cc2)c2c3ccccc3cc[n+]2[n-]1` [Compound C, 1-(4-chloro-phenyl)-as-triazino[6,1-a]isoquinoline-5-ium-2-(1H)-ide-3-one]: in series [3] (mice, p.o., 7 days observation), the LD50 at 168 h was 2000 mg/kg. Further, in series [1], the “Ther. index, tetrabenazine ptosis” value was 87 and it took a dose of 23 mg/kg to reach the 50% effect level (ED50).
Take `CCN(CC)CC(=O)Nc1c(C)cccc1C` [Lidocain, α-diethylamino-2,6-dimethyl-acetanilide, reference compound]: the “Inhibition, antiarrhythmial effect” value in series [5] (dose 4 mg./kg.) was determined as 23.4%.
With `Clc1ccc(-c2ncn[n+]3ccc4ccccc4c23)cc1` [Reference compound D, 1-(4-chloro-phenyl)-as-triazino[6,1-a]isochinolinium-bromide, reference compound], the “Ther. index, tetrabenazine ptosis” value in series [1] is reported as 188. Besides, in the series with reserpine ptosis on mice, the “Ther. index, reserpine ptosis” value is “below 5.0” and the ED50 is greater than 120 mg/kg. Besides, the 50% effect level with reserpine ptosis on rats (ED50) was put at a dose of 60 mg/kg. Moreover, the “ED50, antitremorine effect” value in series [6] (p.o. 1 hour before tremorine 20 mg./kg. i.p.) was “inactive”.
